# Test results from the NIST ThermoML archive (doi:10.1021/je025610o).
# Numbers after ± are expanded uncertainties.
# Legend:
# [1] = 100 kPa, Liquid, Capillary tube (Ostwald / Ubbelohde) method
# [2] = xn = mol fraction of the nth substance listed; settings: 100 kPa, Liquid; for thermal conductivity: Hot wire method
smiles,measurement,setting,value
OCCOCCOCCO [triethylene glycol],viscosity,[1]; 299.65 K,35.1 ± 0.7 mPa·s
same,viscosity,[1]; 313.05 K,19.5 ± 0.4 mPa·s
same,viscosity,[1]; 333.1 K,9.66 ± 0.21 mPa·s
same,viscosity,[1]; 353.05 K,5.55 ± 0.12 mPa·s
same,viscosity,[1]; 373.5 K,3.41 ± 0.07 mPa·s
same,viscosity,[1]; 393.3 K,2.36 ± 0.05 mPa·s
same,viscosity,[1]; 413.25 K,1.71 ± 0.04 mPa·s
same,viscosity,[1]; 428.1 K,1.39 ± 0.03 mPa·s
OCCOCCOCCO [triethylene glycol] + O,mass density,"[2]; 293.85 K, x1 = 0.25",1108 ± 2 kg/m3
same,viscosity,"[2]; 293.85 K, x1 = 0.25",19.2 ± 0.5 mPa·s
same,mass density,"[2]; 294.05 K, x1 = 0.5",1120 ± 2 kg/m3
same,viscosity,"[2]; 294.05 K, x1 = 0.5",36 ± 0.9 mPa·s
same,mass density,"[2]; 294.15 K, x1 = 0.75",1122 ± 2 kg/m3
same,viscosity,"[2]; 294.15 K, x1 = 0.75",43.2 ± 1.1 mPa·s
same,thermal conductivity,"[2]; 295 K, x1 = 0.25",0.258 ± 0.005 W/m/K
same,thermal conductivity,"[2]; 295.5 K, x1 = 0.5",0.21 ± 0.004 W/m/K
same,thermal conductivity,"[2]; 295.5 K, x1 = 0.75",0.195 ± 0.004 W/m/K
same,mass density,"[2]; 313.05 K, x1 = 0.25",1093 ± 2 kg/m3
same,viscosity,"[2]; 313.05 K, x1 = 0.25",8.6 ± 0.2 mPa·s
same,mass density,"[2]; 313.05 K, x1 = 0.5",1105 ± 2 kg/m3
same,viscosity,"[2]; 313.05 K, x1 = 0.5",15.2 ± 0.4 mPa·s
same,mass density,"[2]; 313.05 K, x1 = 0.75",1108 ± 2 kg/m3
same,viscosity,"[2]; 313.05 K, x1 = 0.75",18.3 ± 0.5 mPa·s
same,thermal conductivity,"[2]; 323.8 K, x1 = 0.25",0.268 ± 0.005 W/m/K
same,thermal conductivity,"[2]; 324.6 K, x1 = 0.5",0.216 ± 0.004 W/m/K
same,thermal conductivity,"[2]; 327.1 K, x1 = 0.75",0.197 ± 0.004 W/m/K
same,mass density,"[2]; 333.05 K, x1 = 0.25",1078 ± 2 kg/m3
same,viscosity,"[2]; 333.05 K, x1 = 0.25",4.52 ± 0.13 mPa·s
same,mass density,"[2]; 333.05 K, x1 = 0.5",1089 ± 2 kg/m3
same,viscosity,"[2]; 333.05 K, x1 = 0.5",7.52 ± 0.2 mPa·s
same,mass density,"[2]; 333.05 K, x1 = 0.75",1092 ± 2 kg/m3
same,viscosity,"[2]; 333.05 K, x1 = 0.75",9.04 ± 0.24 mPa·s
same,thermal conductivity,"[2]; 349.1 K, x1 = 0.25",0.275 ± 0.006 W/m/K
same,thermal conductivity,"[2]; 349.5 K, x1 = 0.5",0.219 ± 0.004 W/m/K
same,thermal conductivity,"[2]; 349.8 K, x1 = 0.75",0.201 ± 0.004 W/m/K
same,mass density,"[2]; 353.05 K, x1 = 0.25",1061 ± 2 kg/m3
same,viscosity,"[2]; 353.05 K, x1 = 0.25",2.7 ± 0.08 mPa·s
same,mass density,"[2]; 353.05 K, x1 = 0.5",1073 ± 2 kg/m3
same,viscosity,"[2]; 353.05 K, x1 = 0.5",4.32 ± 0.12 mPa·s
same,mass density,"[2]; 353.05 K, x1 = 0.75",1076 ± 2 kg/m3
same,viscosity,"[2]; 353.05 K, x1 = 0.75",5.19 ± 0.15 mPa·s
same,thermal conductivity,"[2]; 372.7 K, x1 = 0.75",0.202 ± 0.004 W/m/K
same,thermal conductivity,"[2]; 373.6 K, x1 = 0.5",0.22 ± 0.005 W/m/K
same,thermal conductivity,"[2]; 373.8 K, x1 = 0.25",0.28 ± 0.006 W/m/K
same,mass density,"[2]; 379.65 K, x1 = 0.25",1039 ± 2 kg/m3
same,viscosity,"[2]; 382.15 K, x1 = 0.25",1.5 ± 0.04 mPa·s
same,mass density,"[2]; 384.25 K, x1 = 0.5",1046 ± 2 kg/m3
same,mass density,"[2]; 384.95 K, x1 = 0.75",1049 ± 2 kg/m3
same,viscosity,"[2]; 386.75 K, x1 = 0.5",2.09 ± 0.06 mPa·s
same,viscosity,"[2]; 387.45 K, x1 = 0.75",2.41 ± 0.07 mPa·s
same,mass density,"[2]; 389.35 K, x1 = 0.25",1030 ± 2 kg/m3
same,mass density,"[2]; 391.35 K, x1 = 0.5",1041 ± 2 kg/m3
same,mass density,"[2]; 392.55 K, x1 = 0.75",1044 ± 2 kg/m3
same,viscosity,"[2]; 393.35 K, x1 = 0.25",1.27 ± 0.04 mPa·s
same,viscosity,"[2]; 395.35 K, x1 = 0.5",1.84 ± 0.05 mPa·s
same,thermal conductivity,"[2]; 396 K, x1 = 0.5",0.221 ± 0.005 W/m/K
same,thermal conductivity,"[2]; 396.4 K, x1 = 0.25",0.285 ± 0.006 W/m/K
same,viscosity,"[2]; 396.55 K, x1 = 0.75",2.11 ± 0.06 mPa·s
same,thermal conductivity,"[2]; 397.6 K, x1 = 0.75",0.2 ± 0.004 W/m/K
same,mass density,"[2]; 405.75 K, x1 = 0.25",1016 ± 2 kg/m3
same,mass density,"[2]; 407.45 K, x1 = 0.75",1032 ± 2 kg/m3
same,mass density,"[2]; 407.85 K, x1 = 0.5",1028 ± 2 kg/m3
same,viscosity,"[2]; 409.75 K, x1 = 0.25",1 ± 0.03 mPa·s
same,viscosity,"[2]; 411.45 K, x1 = 0.75",1.68 ± 0.05 mPa·s
same,viscosity,"[2]; 411.85 K, x1 = 0.5",1.43 ± 0.04 mPa·s
same,thermal conductivity,"[2]; 421.3 K, x1 = 0.25",0.292 ± 0.006 W/m/K
same,thermal conductivity,"[2]; 421.9 K, x1 = 0.5",0.221 ± 0.005 W/m/K
same,thermal conductivity,"[2]; 422.5 K, x1 = 0.75",0.198 ± 0.004 W/m/K
same,mass density,"[2]; 423.35 K, x1 = 0.25",999.2 ± 2.2 kg/m3
same,mass density,"[2]; 425.35 K, x1 = 0.75",1016 ± 2 kg/m3
same,mass density,"[2]; 425.95 K, x1 = 0.5",1011 ± 2 kg/m3
same,viscosity,"[2]; 427.35 K, x1 = 0.25",0.813 ± 0.025 mPa·s
same,viscosity,"[2]; 429.35 K, x1 = 0.75",1.3 ± 0.04 mPa·s
same,viscosity,"[2]; 429.95 K, x1 = 0.5",1.11 ± 0.03 mPa·s
same,mass density,"[2]; 442.45 K, x1 = 0.25",980 ± 2 kg/m3
same,mass density,"[2]; 443.45 K, x1 = 0.5",995 ± 2 kg/m3
same,mass density,"[2]; 444.55 K, x1 = 0.75",999.5 ± 2.3 kg/m3
same,thermal conductivity,"[2]; 445 K, x1 = 0.25",0.282 ± 0.006 W/m/K
same,viscosity,"[2]; 446.45 K, x1 = 0.25",0.662 ± 0.021 mPa·s
same,thermal conductivity,"[2]; 446.5 K, x1 = 0.75",0.195 ± 0.004 W/m/K
same,viscosity,"[2]; 447.45 K, x1 = 0.5",0.903 ± 0.028 mPa·s
same,thermal conductivity,"[2]; 448.3 K, x1 = 0.5",0.216 ± 0.004 W/m/K
same,viscosity,"[2]; 448.55 K, x1 = 0.75",1.03 ± 0.03 mPa·s
